Results from ChEMBL document CHEMBL5725691, “Bromodomain inhibitors” (2018).

molecular target: Bromodomain-containing protein 4 (Homo sapiens, UniProt O60885); assay: His-tagged BRD4 was cloned, expressed and purified to homogeneity. […] BRD4 binding and inhibition was assessed by monitoring the interaction of biotinylated H4-tetraacetyl peptide (AnaSpec, H4K5/8/12/16(Ac), biotin-labeled) with the target using the AlphaScreen technology (Life Technologies). […] After 20 min incubation at room temp, Alpha streptavidin donor beads and Nickel Chelate acceptor beads were added to a final concentration of 5 μg/mL.

Compound | IC50 [nM]
Cc1cc(-c2cn(CS(C)(=O)=O)c(=O)cc2Oc2ccc(F)cc2F)cn(CC2CC2)c1=O | < 500
CCCOc1ccc(S(C)(=O)=O)cc1-c1cn(C)c(=O)c2cnc(-c3cnn(C)c3)nc12 | < 500
CCS(=O)(=O)Nc1ncc(Oc2ccc(F)cc2F)c(-c2cc(OC)c(=O)n(C)c2)n1 | < 500
Cc1cc(-c2cc(OCc3ccccc3Cl)cc(S(C)(=O)=O)c2)cn(C)c1=O | < 500
Cc1c(-c2cc(NS(C)(=O)=O)ccc2Oc2ccc(F)cc2F)cn(C)c(=O)c1C | < 500

More lines, now with the values ahead:

IC50 [nM] | Compound
< 500 | Cn1cc(-c2cc(S(C)(=O)=O)ccc2OCC2CC2)c2cc(C(F)(F)F)ccc2c1=O
< 500 | CCS(=O)(=O)c1ccc(NCC2CC2)c(-c2cc(Cl)c(=O)n(C)c2)c1
< 500 | CCS(=O)(=O)c1ccc(OCC2CC2)c(-c2cn(C)c(=O)c3c2OCC(=O)N3)c1
